The results in this text go back to patent publication US6369208B1, “Capped synthetic RNA, analogs, and aptamers” (Merck & Co., Inc., priority 1995, dated 2002).

Broadly, the Km is the substrate concentration at which the rate is half of its maximum.

Test [1] addresses T1, influenza endonuclease (Influenza A virus, UniProt P03428+P03433).
For test [2], the target named is T1, influenza endonuclease. The source holds these as a separate data set.
For test [3], the target named is T1, influenza endonuclease. This is another data set of the same source.

For “pppG(2′-OMe)UUUUUAUUUUUAAUUUUC-3′ [SEQ.ID.NO.:4]”, on influenza endonuclease [1], the Km is 0.4 nM and the “site of cleavage by influenza endonuclease” value is “between the two A's at positions 13-14”.
As for “pppG(2′-OMe)UAUUAAUA(3′dA)-3′ [SEQ.ID.NO.:21]”, the “binding of the labeled capped 10-mer competed by unlabeled competitor” value at influenza endonuclease [2] is recorded as 10%.
With “m^7GpppG(2′-OMe)UAUUAAUA(3′-dA)-3′ [SEQ.ID.NO.:3]”, on influenza endonuclease [2], the “binding of the labeled capped 10-mer displaced by competition with unlabeled competitor” value is reported as 95% and the saturation amplitude came to 5.2 nM. The “inhibition of influenza endonuclease (in words)” value on influenza endonuclease [3] was “potent inhibitor of influenza endonuclease”.
